Data taken from US7371379B2, “Dosages for treatment with anti-ErbB2 antibodies” (Genentech, Inc., priority 1999, dated 2008).

Legend:
BT-474M1 [1] = assay: nude mouse xenograft tumor volume, i.v. bolus versus s.c. infusion (Example 3); type: in vivo; settings: control s.c. infusion
Method: A study in a nude mouse xenograft model, which incorporates a human breast cancer cell line that naturally overexpresses the HER2 gene (BT-474M1, derived from BT-474 cells, ATCC Accession number HTB-20), comparing tumor volume as a function of i.v. bolus versus s.c. infusion was performed as follows. In the first study athymic nude nu nu 7-9 week old female mice were obtained from Taconic Inc (Germantown, N.Y.). To initiate tumor development, each mouse was inoculated subcutaneously with 3×10^6 BT474M1 cells suspended in Matrigel™. When tumor nodules reached a volume of approximately 100 mm^3, animals were randomized to 4 treatment groups.
(§3) Animals were exposed to estrogen by subcutaneous sustained release estrogen pellet 9 days before the start of dosing to promote growth of grafted tumor cells. The animals were inoculated with the BT474M 1 cells 8 days before the beginning of treatment and tumors were allowed to grow. […] The study groups were treated until day 35. […] Tumor volumes were measured two days before dosing began and twice per week from day 6 to day 35 in the study for which data is tabulated below. Tumors were measured in three dimensions and volumes were expressed in mm^3. Efficacy was determined by a statistical comparison (ANOVA) of tumor volumes of test animals relative to untreated control animals.

BT-474M1 [2] = assay: nude mouse xenograft tumor volume, i.v. bolus versus s.c. bolus (Example 4); type: in vivo; settings: Group 1, IV Control
Method: (§1) This study was set up as disclosed herein in Example 3 for the comparison of intravenous bolus and subcutaneous infusion delivery. A sustained release estrogen implant was inserted subcutaneously one day before tumor cell innoculation as described in Example 3. Six days after tumor cell innoculation, the initial tumor measurement was performed. […] Animals were dosed once weekly for 4 weeks.
(§2) The mice were treated according to the information in Table 4 and using the techniques disclosed in Example 3. […] The control E25 antibody serum concentration was determined according to standard immunoassay techniques.
For this study, efficacy was measured as a decrease in tumor volume. Tumor volume was measured twice weekly.

[3] = serum antibody concentration in xenograft mice (Example 3); type: in vivo, mouse; settings: control s.c. infusion
Method: as §3

[4] = serum antibody concentration in xenograft mice (Example 4); type: in vivo, mouse; settings: Group 1, IV, MD 4 mg/kg
Method: as §1, §2

[5] = test system: ErbB2-overexpressing metastatic breast cancer; assay: clinical study of chemotherapy with or without HERCEPTIN (Example 1); type: in vivo, human
Description: Eligibility Criteria Patients had to fulfill all of the following criteria to be eligible for study admission: • Metastatic breast cancer • Overexpression of the ErbB2 (HER2) oncogene (2+ to 3+ as determined by immunohistochemistry or fluorescence in situ hybridization (FISH). [Tumor expression of ErbB2 can be determined by immunohistochemical analysis, as previously described (Slamon et al., [1987] and [1989], supra), of a set of thin sections prepared from the patient's paraffin-archived tumor blocks. The primary detecting antibody used is murine 4D5 MAb, which has the same CDRs as the humanized antibody used for the treatment.
Beginning on day 7, patients received weekly administration of 2 mg/kg antibody (i.v.) over a 90-minute period.
The patients received one of two chemotherapy regimens for a minimum of six cycles, provided their disease was not progressing: a) cyclophosphamide and doxorubicin or epirubicin (AC), if patients have not received anthracycline therapy in the adjuvant setting, or b) paclitaxel (T, TAXOL®), if patients have received any anthracycline therapy in the adjuvant setting. […] Subsequent doses of the antibody were given immediately before chemotherapy administration, if the initial dose of the antibody was well tolerated. If the first dose of the antibody was not well tolerated, subsequent infusions continued to precede chemotherapy administration by 24 hours. Patients were permitted to continue receiving chemotherapy beyond six cycles if, in the opinion of the treating physician, they were continuing to receive treatment benefit.
Cyclophosphamide (600 mg/m^2) was given either by iv push over a minimum period of 3 minutes or by infusion over a maximum period of 2 hours.
Doxorubicin (60 mg/m^2) or epirubicin (75 mg/m^2) were given either by slow iv push over a minimum period of 3-5 minutes or by infusion over a maximum period of 2 hours, according to institutional protocol.
All patients receiving paclitaxel were premedicated with dexamethasone (or its equivalent) 20 mg×2, administered orally 12 and 6 hours prior to paclitaxel; diphenhydramine (or its equivalent) 50 mg, iv, administered 30 minutes prior to paclitaxel, and […] (or another H2 blocker) 300 mg, iv, administered 30 minutes prior to paclitaxel.
Progressive disease also includes those instances when new lesions have appeared.
Complete Response Disappearance of all radiographically and/or visually apparent tumor for a minimum of 4 weeks. Skin and chest wall complete responses had to be confirmed by biopsy. […]
Time to disease progression (TTP) was calculated from the beginning of therapy to progression. Confidence limits for response rates were calculated using the exact method for a single proportion. […]

[6] = median follow-up 10.5 months, H 4 mg/kg then 2 mg/kg weekly i.v.

| syndrome of myocardial dysfunction ([5]; Grade ¾) [%] | Compound | Tumor Volume (area under curve) Day 6-Day 35 (BT-474M1 [1]) | Tumor Volume (mm^3), Day 35 (BT-474M1 [1]; IV LD 2.20 mg/kg, infusate […]) [mm^3] | Tumor Vol. Day 28, mm^3 (BT-474M1 [2]) [mm^3] | Tumor Vol. Day 31, mm^3 (BT-474M1 [2]) [mm^3] | Tumor Vol. Day 6, mm^3 (BT-474M1 [2]; LD 8, MD 4 mg/kg/week, initial measurement before first dose) [mm^3] | Day 6-Day 31 Area Under Curve Tumor Vol., mm^3 (BT-474M1 [2]; Day 17 excluded) [mm^3] | HERCEPTIN Serum Conc. (μg/ml), Day 27 [3] [µg/mL] | Serum Concentration, Mean ([4]; Day 0) [ng/mL] | Serum Concentration, Mean ([4]; Day 7) [ng/mL] | Serum Concentration, Mean ([4]; Day 14) [ng/mL] | Serum Concentration, Mean ([4]; Day 21) [ng/mL] | AE(%) overall severe adverse events ([5]; median follow-up 10.5 months) [%] | RR(%) [5, 6] [%] | TTP(months) [5, 6] [months] |
| --- | --- | --- | --- | --- | --- | --- | --- | --- | --- | --- | --- | --- | --- | --- | --- |
|  | rhu MAb E25: nonrelevant antibody E25 (non-specific for HER2 receptor, but a member of the monoclonal IgG class) | 5650 ± 4700 | 764 ± 700 | 1530 | 1630 | 321 | 13600 | 4.16 ± 1.94 | 0 | 25900 | 34600 | 38500 |  |  |  |
| 0 | CC(=O)O[C@H]1C(=O)[C@@]2(C)[C@H]([C@H](OC(=O)c3ccccc3)[C@]3(O)C[C@H](OC(=O)[C@H](O)[C@@H](NC(=O)c4ccccc4)c4ccccc4)C(C)=C1C3(C)C)[C@]1(OC(C)=O)CO[C@@H]1C[C@@H]2O [T, paclitaxel] |  |  |  |  |  |  |  |  |  |  |  | 59 | 25.0 | 4.2 |
